The assay relates to Paecilomyces variotii. The conditions noted are these: single substance alone, fruit-component drink inoculated with conidia, incubated two weeks at 27° C. The protocol:
A drink which contains fruit components was admixed with various concentrations of citric acid and subsequently inoculated with conidia of the fungus Paecilomyces variotii. Subsequently, the inoculated drinks samples were treated with various DMDC concentrations and incubated for two weeks at 27° C.

Where two headings read alike, the source gives them in different places.

Turning to `O=C(O)CC(O)(CC(=O)O)C(=O)O` [Citric acid, citric acid], the MHC is recorded as >30 000 ppm. Also, the MHC (listed as citric acid) is > 30 000 ppm.
Regarding `COC(=O)OC(=O)OC` [DMDC, dimethyl dicarbonate], the MHC is above 250 ppm.

The record behind these values is patent publication US20100021599A1, “PRESERVATIVE” (LANXESS DEUTSCHLAND GMBH, priority 2006, published 2010).
